PMC11755020 (Computational and Structural Biotechnology Journal, 2024)

Target: T1, HNF4α (hepatocyte nuclear factor 4α) (Homo sapiens, UniProt P41235)
T1 sequence (P41235 147-377 limits assumed): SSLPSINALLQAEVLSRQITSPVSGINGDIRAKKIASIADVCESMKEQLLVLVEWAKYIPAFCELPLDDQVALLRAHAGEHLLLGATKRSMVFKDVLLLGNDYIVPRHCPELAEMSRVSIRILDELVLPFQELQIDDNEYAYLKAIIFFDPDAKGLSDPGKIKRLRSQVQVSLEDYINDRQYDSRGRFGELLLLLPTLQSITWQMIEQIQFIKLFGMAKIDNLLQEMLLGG
Experiment: microscale thermophoresis
Format: binding

Kd [µM]	SMILES
78.2	COc1c(/C=C/C(=O)c2ccc(O)cc2)ccc(O)c1O [licochalcone B]
3110	O=C(/C=C/c1ccc(O)c(O)c1)O[C@@H]1C[C@@](OC(=O)/C=C/c2ccc(O)c(O)c2)(C(=O)O)C[C@@H](O)[C@@H]1O [cynarin]
34.9	O=C(/C=C/c1ccc(O)c(O)c1)O[C@H](Cc1ccc(O)c(O)c1)C(=O)O [rosmarinic acid]
